Holding throughout (assay type): biochemical
The target in one test is VHR (Homo sapiens, UniProt P51452). The test is described as follows: PTP-catalyzed hydrolysis of DiFMUP, IC50 determination (VHR). Conditions: DiFMUP at Km, pH 6.0, 30° C. As for the experimental part:
(§1) The PTP-catalyzed hydrolysis of 6,8-difluoro-4-methylumbelliferyl phosphate (DiFMUP) in the presence of the test compound is assayed at 30° C. in a 60 μL 96 well format reaction system in 0.15 M Bis-Tris, pH 6.0 assay buffer having an ionic strength of 150 mM (adjusted with NaCl) and containing 1 mM dithiotreitol and 5% DMSO. At various concentrations of the compound, the initial rate at fixed DiFMUP concentration (equal to the corresponding Km value for each PTP) was determined using a FLx800 micro plate reader (Bio-Tek Instruments, Inc.), an excitation wave length of 360 nm and measuring the emission of the fluorescent reaction product 6,8-difluoro-7-hydroxy-4-methylcoumarin (DiFMU) at 460 nm. The nonenzymatic hydrolysis of the substrate was corrected by measuring the control without addition of enzyme. The IC50 value was determined by plotting the relative activity versus inhibitor concentrations and fitting to Equation 1 using the software GraphPad Prism™ (GraphPad Software, Inc.).
(§2) [formula] In this case, Vi, is the reaction velocity when the inhibitor concentration is [I], V0 is the reaction velocity with no inhibitor and IC50=Ki+Ki[S]/Km.

Another test deals with T1, MKP-1 (Homo sapiens, UniProt P28562).
T1 sequence (P28562 1-367): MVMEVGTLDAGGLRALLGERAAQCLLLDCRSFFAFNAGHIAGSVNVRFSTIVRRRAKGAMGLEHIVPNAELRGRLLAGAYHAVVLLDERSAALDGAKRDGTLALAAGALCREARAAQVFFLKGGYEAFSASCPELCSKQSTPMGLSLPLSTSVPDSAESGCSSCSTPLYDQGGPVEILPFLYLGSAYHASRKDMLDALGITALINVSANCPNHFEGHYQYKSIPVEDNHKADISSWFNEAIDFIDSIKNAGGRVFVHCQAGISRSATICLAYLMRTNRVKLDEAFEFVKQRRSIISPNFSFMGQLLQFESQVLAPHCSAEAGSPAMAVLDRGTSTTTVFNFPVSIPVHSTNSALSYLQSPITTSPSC
Nature of the test: PTP-catalyzed hydrolysis of DiFMUP, IC50 determination (MKP-1). As for the experimental part:
The PTP-catalyzed hydrolysis of 6,8-difluoro-4-methylumbelliferyl phosphate (DiFMUP) in the presence of the test compound is assayed at 30° C. in a 60 μL 96 well format reaction system in 0.15 M Bis-Tris, pH 6.0 assay buffer having an ionic strength of 150 mM (adjusted with NaCl) and containing 1 mM dithiotreitol and 5% DMSO. […] The nonenzymatic hydrolysis of the substrate was corrected by measuring the control without addition of enzyme. The IC50 value was determined by plotting the relative activity versus inhibitor concentrations and fitting to Equation 1 using the software GraphPad Prism™ (GraphPad Software, Inc.).
as §2

The target in another test is T2, CD45 (Homo sapiens, UniProt P08575).
T2 sequence (P08575 26-1306): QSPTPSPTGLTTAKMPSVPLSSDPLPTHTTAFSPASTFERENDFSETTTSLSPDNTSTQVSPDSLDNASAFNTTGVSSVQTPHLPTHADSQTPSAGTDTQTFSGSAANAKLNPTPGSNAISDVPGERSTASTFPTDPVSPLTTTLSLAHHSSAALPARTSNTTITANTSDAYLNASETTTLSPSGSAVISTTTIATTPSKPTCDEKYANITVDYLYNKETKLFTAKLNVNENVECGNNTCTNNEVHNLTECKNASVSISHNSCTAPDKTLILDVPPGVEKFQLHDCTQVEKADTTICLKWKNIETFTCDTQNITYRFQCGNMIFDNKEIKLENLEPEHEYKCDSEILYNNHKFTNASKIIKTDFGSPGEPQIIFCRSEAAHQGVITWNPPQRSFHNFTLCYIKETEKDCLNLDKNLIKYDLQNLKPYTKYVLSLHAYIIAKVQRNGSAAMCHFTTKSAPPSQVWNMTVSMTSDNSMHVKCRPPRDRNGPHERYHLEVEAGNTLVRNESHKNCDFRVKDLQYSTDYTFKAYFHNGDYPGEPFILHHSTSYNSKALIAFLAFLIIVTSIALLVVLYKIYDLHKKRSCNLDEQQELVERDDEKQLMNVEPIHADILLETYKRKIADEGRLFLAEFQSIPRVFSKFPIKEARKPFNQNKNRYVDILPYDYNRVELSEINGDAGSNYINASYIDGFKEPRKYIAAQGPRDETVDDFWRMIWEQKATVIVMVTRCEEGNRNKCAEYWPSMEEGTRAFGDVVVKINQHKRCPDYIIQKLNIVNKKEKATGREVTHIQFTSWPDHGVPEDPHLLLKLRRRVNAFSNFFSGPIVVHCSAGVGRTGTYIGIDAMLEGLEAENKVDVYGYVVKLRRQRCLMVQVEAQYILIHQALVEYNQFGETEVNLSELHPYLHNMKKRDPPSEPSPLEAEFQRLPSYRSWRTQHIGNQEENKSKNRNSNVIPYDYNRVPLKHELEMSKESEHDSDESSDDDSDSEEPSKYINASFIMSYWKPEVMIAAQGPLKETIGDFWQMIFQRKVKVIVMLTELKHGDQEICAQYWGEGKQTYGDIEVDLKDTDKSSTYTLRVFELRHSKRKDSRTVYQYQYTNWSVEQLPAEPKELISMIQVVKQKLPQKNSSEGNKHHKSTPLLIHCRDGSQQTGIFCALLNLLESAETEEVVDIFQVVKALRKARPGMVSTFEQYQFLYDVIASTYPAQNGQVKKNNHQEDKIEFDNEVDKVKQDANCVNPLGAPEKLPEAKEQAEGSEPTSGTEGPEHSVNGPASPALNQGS
Nature of the test: PTP-catalyzed hydrolysis of DiFMUP, IC50 determination (CD45). As for the experimental part:
as §1, §2

Another test has as its target T3, PTP1B (Homo sapiens, UniProt P18031).
T3 sequence (P18031 1-435): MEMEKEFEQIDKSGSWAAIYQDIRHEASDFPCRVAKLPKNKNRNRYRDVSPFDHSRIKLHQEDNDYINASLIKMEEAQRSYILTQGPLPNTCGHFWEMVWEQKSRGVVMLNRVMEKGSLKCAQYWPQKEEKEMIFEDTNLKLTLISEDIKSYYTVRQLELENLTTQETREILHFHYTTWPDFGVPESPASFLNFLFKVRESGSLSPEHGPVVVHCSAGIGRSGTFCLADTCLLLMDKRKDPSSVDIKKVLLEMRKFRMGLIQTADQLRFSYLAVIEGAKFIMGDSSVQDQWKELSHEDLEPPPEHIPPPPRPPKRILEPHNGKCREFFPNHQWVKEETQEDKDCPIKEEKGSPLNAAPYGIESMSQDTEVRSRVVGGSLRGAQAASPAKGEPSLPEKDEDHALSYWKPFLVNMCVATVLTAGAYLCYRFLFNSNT
Nature of the test: PTP-catalyzed hydrolysis of DiFMUP, IC50 determination (PTP1B). Here is the method:
as §1, §2

The mark [1] stands for this setting: Table II, DiFMUP at Km, pH 6.0, 30° C.

The results in this text go back to US8188080B2 (Sanford-Burnham Medical Research Institute, priority 2007, dated 2012).

Like-named read-outs stand apart in the source and are kept apart here.

VHR, sequence (P51452 whole entry): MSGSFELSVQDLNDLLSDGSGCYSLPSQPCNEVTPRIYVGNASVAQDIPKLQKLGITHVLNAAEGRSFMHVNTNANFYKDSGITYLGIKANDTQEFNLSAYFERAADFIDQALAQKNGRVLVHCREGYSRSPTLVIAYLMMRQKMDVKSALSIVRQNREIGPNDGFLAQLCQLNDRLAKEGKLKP

Usually IC50 stands for the concentration at which inhibition is half-maximal. Take `O=C1/C(=C/c2cn(-c3ccccc3)nc2-c2ccc(OCc3ccc(Cl)cc3)cc2)SC(=S)N1CCS(=O)(=O)O` [Compound 10, (Z)-2-[5-({3-[4-(4-chlorobenzyloxy)phenyl]-1-phenyl-1H-pyrazol-4-yl}methylene)-4-oxo-2-thioxothiazolidin-3-yl]ethane sulfonic acid]: the IC50 on VHR (Table I, read-out: IC50) turned out to be 18 nM; at VHR (Table II, read-out: IC50 VHR) it was 18 nM; against MKP-1 (setting [1]) it was 457 nM; against CD45 (setting [1]) it was 460 nM; against PTP1B (setting [1]), 456 nM.
With `O=C1/C(=C/c2cn(-c3ccccc3)nc2-c2ccc(S(=O)(=O)N3CCOCC3)cc2)SC(=S)N1CCS(=O)(=O)O` [Compound 14], the IC50 at VHR (Table I, read-out: IC50) is 2440 nM; on VHR (Table II, read-out: IC50 VHR), 71 nM; at MKP-1, 474 nM; against CD45, 303 nM; against PTP1B, 592 nM.
With `O=C1/C(=C/c2cn(-c3ccccc3)nc2-c2ccc(OCc3ccccc3)cc2)SC(=S)N1CCS(=O)(=O)O` [Compound 9], the IC50 at VHR (Table I, read-out: IC50) was found to be 78 nM; at VHR (Table II, read-out: IC50 VHR), 78 nM; at MKP-1 (setting [1]) it was 779 nM; against CD45 (setting [1]), 609 nM; at PTP1B it was 1750 nM.
